How the values were obtained:
male LDL R-\-mice = assay: Western diet-induced diabetes in LDL R-/- mice; assay type: in vivo; settings: LDL R-/- mice on Western diet, 4 weeks treatment
Text: To test the effect of Dunaliella on Diabetes, male LDL R-\-mice (n=30) were fed a Western diet (42% calories from fat) in order to induce Diabetes. After 4 weeks of Western diet feeding, the mice were divided into 6 groups (n=5 in each group) and were fed Western diet fortified by rosiglitazone (0.02% of the diet, weight/weight), crude Dunaliella powder (8% of the diet, weight/weight) or 9-cis retinoic acid (24 nmol/mouse×day). The treatments lasted 4 weeks.
The 8% Dunaliella powder provided ˜1.5 nmol 9-cis retinoic acid/mouse×day. This calculated amount is based on conversion of β-carotene to vitamin A (27 molecules provide 1 molecule of vitamin A and on the ratio of retinoic acid to vitamin A which is about 1 molecule of retinoic acid to 300 molecules of retinol, retinal and retinoic acid).
The following groups were included:
1. Control, Western diet alone. (Control)
2. 9-cis retinoic acid (RA)
4. Dunaliella powder 8% (Dun)

patients = patients treated with gemfibrozil; cited from earlier work

Compound | plasma glucose levels (male LDL R-\-mice) | plasma insulin levels (male LDL R-\-mice) | reduction of the rate of coronary events (patients)
CC1=C(/C=C/C(C)=C\C=C\C(C)=C\C(=O)O)C(C)(C)CCC1 [9-cis retinoic acid] | did not affect | did not affect | 
Cc1ccc(C)c(OCCCC(C)(C)C(=O)O)c1 [gemfibrozil] |  |  | 22%

From patent US8343549B2, “Therapeutic uses of Dunaliella powder” (Nikken Sohonsha Corporation, priority 2003, dated 2013)
